Where two headings read alike, the source gives them in different places.
Key:
Assay type in all cases: cell-based, human
[1] = system: Hep3B (hepatocellular carcinoma); assay: Cell viability analysis, hepatic cancer Hep3B; conditions: Homo sapiens, Hep3B, 72 h, read-out: The results of antibiotic drug inhibiting cancer cell lines (cell viability analysis), Hep3B
U-2OS = assay: Cell viability analysis, osteosarcoma U-2OS; conditions: Homo sapiens, U2OS, 72 h, read-out: The results of antibiotic drug inhibiting cancer cell lines (cell viability analysis), U2OS
[2] = system: A375 (Amelanotic Melanoma); assay: Cell viability analysis, skin cancer A375; conditions: Homo sapiens, A-375, 72 h
[3] = system: MDA-MB-231 (Mammary Gland, Adenocarcinoma); assay: Cell viability analysis, breast cancer MDA-MB-231; conditions: Homo sapiens, MDA-MB-231, 72 h, read-out: The results of antibiotic drug inhibiting cancer cell lines (cell viability analysis), MDA-MB231
[4] = system: BCC (basal cell carcinoma); assay: Cell viability analysis, skin cancer BCC; conditions: Homo sapiens, 72 h, read-out: The results of antibiotic drug inhibiting cancer cell lines (cell viability analysis), BCC
[5] = system: HI650 (Lung Adenocarcinoma); assay: Cell viability analysis, lung cancer HI650; conditions: Homo sapiens, NCI-H1650, 72 h
[6] = system: SAS (Tongue squamous cell carcinoma); assay: Cell viability analysis, tongue cancer SAS; conditions: Homo sapiens, 72 h, read-out: The results of antibiotic drug inhibiting cancer cell lines (cell viability analysis), SAS
[7] = system: HL-60 (Acute Promyelocytic Leukemia); assay: Cell viability analysis, leukemia HL-60; conditions: Homo sapiens, HL-60, 72 h, read-out: cell viability (survival rate), HL-60, drug 10 μM, 72 hours, WST-1, OD450 nm
[8] = system: HeLa (Cervix Adenocarcinoma); assay: Cell viability analysis, cervical cancer HeLa; conditions: Homo sapiens, HeLa, 72 h
cancer cell lines = assay: Cell viability analysis (WST-1) on cancer cell lines; conditions: drug 10 μM, 72 hours, WST-1; Table 3
[9] = system: HepG2 (Hepatocellular Carcinoma); assay: Cell viability analysis, hepatic cancer HepG2; conditions: Homo sapiens, HepG2, 72 h
[10] = system: LoVo (Colorectal Adenocarcinoma); assay: Cell viability analysis, colon cancer LoVo; conditions: Homo sapiens, LoVo, 72 h
[11] = system: TSGH-8301 (Urinary Bladder Carcinoma); assay: Cell viability analysis, bladder cancer TSGH-8301; conditions: Homo sapiens, 72 h
T24 = assay: Cell viability analysis, bladder cancer T24; conditions: Homo sapiens, T-24, 72 h, read-out: The results of antibiotic drug inhibiting cancer cell lines (cell viability analysis), T24
[12] = system: MKN-45 (Gastric Adenocarcinoma); assay: Cell viability analysis, gastric cancer MKN-45; conditions: Homo sapiens, MKN-45, 72 h
[13] = system: A549 (Lung Adenocarcinoma); assay: Cell viability analysis, lung cancer A549; conditions: Homo sapiens, A549, 72 h
[14] = system: C-33A (Cervical carcinoma); assay: Cell viability analysis, cervical cancer C-33A; conditions: Homo sapiens, C-33-A, 72 h, read-out: The results of antibiotic drug inhibiting cancer cell lines (cell viability analysis), C-33A
[15] = system: AGS (Gastric Adenocarcinoma); assay: Cell viability analysis, gastric cancer AGS; conditions: Homo sapiens, 72 h
[16] = system: 786-O (Renal adenocarcinoma); assay: Cell viability analysis, renal cancer 786-O; conditions: Homo sapiens, 786-0, 72 h, read-out: The results of antibiotic drug inhibiting cancer cell lines (cell viability analysis), 786-O
AsPC-1 = assay: Cell viability analysis, pancreatic cancer AsPC-1; conditions: Homo sapiens, ASPC1, 72 h, read-out: The results of antibiotic drug inhibiting cancer cell lines (cell viability analysis), AsPC-1
[17] = system: MCF7 (Mammary Gland, Adenocarcinoma); assay: Cell viability analysis, breast cancer MCF7; conditions: Homo sapiens, MCF7, 72 h
NIH: OVCAR-3 = assay: Cell viability analysis, ovarian cancer NIH: OVCAR-3; conditions: Homo sapiens, OVCAR-3, 72 h, read-out: The results of antibiotic drug inhibiting cancer cell lines (cell viability analysis), NIH-OVCAR-3
BxPC-3 = assay: Cell viability analysis, pancreatic cancer BxPC-3; conditions: Homo sapiens, BXPC-3, 72 h, read-out: The results of antibiotic drug inhibiting cancer cell lines (cell viability analysis), BxPC-3
TOV-21G = assay: Cell viability analysis, ovarian cancer TOV-21G; conditions: Homo sapiens, TOV21G, 72 h, read-out: The results of antibiotic drug inhibiting cancer cell lines (cell viability analysis), TOV-21G
[18] = system: PC3 (p53−) (Prostate Adenocarcinoma); assay: Cell viability analysis, prostate cancer PC3; conditions: Homo sapiens, 72 h
[19] = read-out: The results of antibiotic drug inhibiting cancer cell lines (cell viability analysis), A375, A375, repeated experiment
[20] = read-out: cell viability (survival rate), A375, drug 10 μM, 72 hours, WST-1, OD450 nm
[21] = read-out: The results of antibiotic drug inhibiting cancer cell lines (cell viability analysis), H1650, H1650, repeated experiment
[22] = read-out: cell viability (survival rate), H1650, drug 10 μM, 72 hours, WST-1, OD450 nm
[23] = read-out: The results of antibiotic drug inhibiting cancer cell lines (cell viability analysis), HeLa, repeated experiment
[24] = read-out: cell viability (survival rate), HeLa, drug 10 μM, 72 hours, WST-1, OD450 nm
[25] = read-out: The results of antibiotic drug inhibiting cancer cell lines (cell viability analysis), HepG2, HepG2, repeated experiment
[26] = read-out: cell viability (survival rate), HepG2, drug 10 μM, 72 hours, WST-1, OD450 nm
[27] = read-out: The results of antibiotic drug inhibiting cancer cell lines (cell viability analysis), TSGH-8301, TSGH-8301, repeated experiment
[28] = read-out: cell viability (survival rate), TSGH, drug 10 μM, 72 hours, WST-1, OD450 nm
[29] = read-out: The results of antibiotic drug inhibiting cancer cell lines (cell viability analysis), MKN-45, MKN-45, repeated experiment
[30] = read-out: cell viability (survival rate), MKN-45, drug 10 μM, 72 hours, WST-1, OD450 nm
[31] = read-out: The results of antibiotic drug inhibiting cancer cell lines (cell viability analysis), A549, A549, repeated experiment
[32] = read-out: cell viability (survival rate), A549, drug 10 μM, 72 hours, WST-1, OD450 nm
[33] = read-out: The results of antibiotic drug inhibiting cancer cell lines (cell viability analysis), AGS, repeated experiment
[34] = read-out: cell viability (survival rate), AGS, drug 10 μM, 72 hours, WST-1, OD450 nm
[35] = read-out: The results of antibiotic drug inhibiting cancer cell lines (cell viability analysis), MCF-7, MCF-7, repeated experiment
[36] = read-out: cell viability (survival rate), MCF7, drug 10 μM, 72 hours, WST-1, OD450 nm

Structure (SMILES)	viability at 10 µM [1] [%]	viability at 10 µM (U-2OS) [%]	viability at 10 µM [2, 19] [%]	viability at 10 µM [2, 20] [%]	viability at 10 µM [3] [%]	viability at 10 µM [4] [%]	viability at 10 µM [5, 21] [%]	viability at 10 µM [5, 22] [%]	viability at 10 µM [6] [%]	viability at 10 µM [7] [%]	viability at 10 µM [8, 23] [%]	viability at 10 µM [8, 24] [%]	inhibition effect on different cancer cell lines (cancer cell lines)	viability at 10 µM [9, 25] [%]	viability at 10 µM [9, 26] [%]	viability at 10 µM [11, 27] [%]	viability at 10 µM [11, 28] [%]	viability at 10 µM (T24) [%]	viability at 10 µM [12, 29] [%]	viability at 10 µM [12, 30] [%]	further results
N=C(N)c1ccc(OCCCCCOc2ccc(C(=N)N)cc2)cc1 [Pentamidine]	72	43.9	49.8	38.2	79	45.8	68.5	65.8	50.9	57.8	44.6	55.9	significant inhibition effect	69.1	76.4	82.7	59.3	123	97.3	86.3	viability at 10 µM ([10]; read-out: The results of antibiotic drug inhibiting cancer cell lines (cell viability analysis), LoVo, repeated experiment): 63.4%; viability at 10 µM ([10]; read-out: cell viability (survival rate), LoVo, drug 10 μM, 72 hours, WST-1, OD450 nm): 74.4%; viability at 10 µM [13, 31]: 35.4%; viability at 10 µM [13, 32]: 51.8%; viability at 10 µM [14]: 65.7%; viability at 10 µM [15, 33]: 92.4%; viability at 10 µM [15, 34]: 50.6%; viability at 10 µM [16]: 67.3%; viability at 10 µM (AsPC-1): 66.2%; viability at 10 µM [17, 35]: 60.5%; viability at 10 µM [17, 36]: 68.5%; viability at 10 µM (NIH: OVCAR-3): 90.9%; viability at 10 µM (BxPC-3): 55%; viability at 10 µM (TOV-21G): 82.9%
CO[C@H]1/C=C/O[C@@]2(C)Oc3c(C)c(O)c4c(O)c(c5c(nc6cc(C)ccn65)c4c3C2=O)NC(=O)/C(C)=C\C=C\[C@H](C)[C@H](O)[C@@H](C)[C@@H](O)[C@@H](C)[C@H](OC(C)=O)[C@@H]1C [Rifaximin (Xifaxan), Rifaximin]	110	72.9	98.2	59.5	98.7	81.8	69.5	82.4	69.8	100	106	54	significant inhibition effect	115	102	114	61.3	96.8	93.5	52.7	viability at 10 µM [13, 31]: 108%; viability at 10 µM [13, 32]: 35.1%; viability at 10 µM [14]: 107%; viability at 10 µM [15, 33]: 98.1%; viability at 10 µM [15, 34]: 93.2%; viability at 10 µM [16]: 87.6%; viability at 10 µM (AsPC-1): 71.2%; viability at 10 µM [17, 35]: 89.9%; viability at 10 µM [17, 36]: 40.1%; viability at 10 µM (NIH: OVCAR-3): 100%; viability at 10 µM (BxPC-3): 89%; viability at 10 µM (TOV-21G): 88%; viability at 10 µM ([18]; read-out: The results of antibiotic drug inhibiting cancer cell lines (cell viability analysis), PC-3, PC-3, repeated experiment): 95.3%; viability at 10 µM ([18]; read-out: cell viability (survival rate), PC3, drug 10 μM, 72 hours, WST-1, OD450 nm): 67.1%
